Laboratory results as given in patent publication US12187723B2 (BRISTOL-MYERS SQUIBB COMPANY, priority 2019, dated 2025).

Assays:
[1] = biological target: T1, human TLR9 (Homo sapiens, UniProt Q9NR96); experiment: TLR9 inhibition reporter assay (HEK-Blue SEAP); assay type: cell-based; settings: HEK-Blue cells overexpressing human TLR9, ODN2006 5 nM, 22 hour incubation
T1 construct: host or cells: HEK-Blue cells
T1 sequence (Q9NR96 26-1032): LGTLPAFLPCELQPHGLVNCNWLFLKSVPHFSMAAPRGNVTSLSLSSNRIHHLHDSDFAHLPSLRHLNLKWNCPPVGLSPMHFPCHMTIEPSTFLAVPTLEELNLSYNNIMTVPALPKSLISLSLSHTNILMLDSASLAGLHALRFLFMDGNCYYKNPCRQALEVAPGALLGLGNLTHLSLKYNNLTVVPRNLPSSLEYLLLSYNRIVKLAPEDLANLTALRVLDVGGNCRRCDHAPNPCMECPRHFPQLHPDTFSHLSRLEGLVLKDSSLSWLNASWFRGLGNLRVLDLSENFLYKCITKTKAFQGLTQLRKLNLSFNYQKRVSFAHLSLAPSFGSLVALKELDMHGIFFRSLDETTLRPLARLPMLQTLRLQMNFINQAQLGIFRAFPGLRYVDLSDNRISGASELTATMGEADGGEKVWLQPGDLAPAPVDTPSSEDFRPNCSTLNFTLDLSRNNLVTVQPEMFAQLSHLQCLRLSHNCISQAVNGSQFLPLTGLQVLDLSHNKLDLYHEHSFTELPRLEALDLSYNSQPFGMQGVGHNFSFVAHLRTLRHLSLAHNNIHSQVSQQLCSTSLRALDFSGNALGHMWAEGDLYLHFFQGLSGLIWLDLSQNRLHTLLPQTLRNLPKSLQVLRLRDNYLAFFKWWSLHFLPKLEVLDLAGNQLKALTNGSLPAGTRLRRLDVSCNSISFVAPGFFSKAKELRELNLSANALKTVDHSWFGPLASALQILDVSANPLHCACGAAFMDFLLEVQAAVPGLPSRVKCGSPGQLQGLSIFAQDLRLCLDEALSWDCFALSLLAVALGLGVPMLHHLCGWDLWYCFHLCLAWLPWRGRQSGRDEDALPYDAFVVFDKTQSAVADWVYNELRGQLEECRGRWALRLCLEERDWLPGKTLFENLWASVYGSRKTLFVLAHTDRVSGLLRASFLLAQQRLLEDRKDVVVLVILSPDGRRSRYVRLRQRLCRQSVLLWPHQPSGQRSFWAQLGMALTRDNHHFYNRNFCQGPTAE
In short: (§1)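 Agonists used: gardiquimod 7.5 μM (TLR7), R848 15.9 μM (TLR8), ODN2006 5 nM (TLR9), added after 30 min room-temperature compound pre-treatment (0.05 nM–50 μM) of receptor-overexpressing HEK-Blue cells. SEAP reporter (NF-κB/AP-1 driven) read after 22 h at 37 °C; inhibition scaled between agonist+DMSO and reference-inhibitor wells.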

[2] = biological target: T2, human TLR8 (Homo sapiens, UniProt Q9NR97); experiment: TLR8 inhibition reporter assay (HEK-Blue SEAP); assay type: cell-based; settings: HEK-Blue cells overexpressing human TLR8, R848 15.9 μM, 22 hour incubation
T2 construct: host or cells: HEK-Blue cells
T2 sequence (Q9NR97 27-1041): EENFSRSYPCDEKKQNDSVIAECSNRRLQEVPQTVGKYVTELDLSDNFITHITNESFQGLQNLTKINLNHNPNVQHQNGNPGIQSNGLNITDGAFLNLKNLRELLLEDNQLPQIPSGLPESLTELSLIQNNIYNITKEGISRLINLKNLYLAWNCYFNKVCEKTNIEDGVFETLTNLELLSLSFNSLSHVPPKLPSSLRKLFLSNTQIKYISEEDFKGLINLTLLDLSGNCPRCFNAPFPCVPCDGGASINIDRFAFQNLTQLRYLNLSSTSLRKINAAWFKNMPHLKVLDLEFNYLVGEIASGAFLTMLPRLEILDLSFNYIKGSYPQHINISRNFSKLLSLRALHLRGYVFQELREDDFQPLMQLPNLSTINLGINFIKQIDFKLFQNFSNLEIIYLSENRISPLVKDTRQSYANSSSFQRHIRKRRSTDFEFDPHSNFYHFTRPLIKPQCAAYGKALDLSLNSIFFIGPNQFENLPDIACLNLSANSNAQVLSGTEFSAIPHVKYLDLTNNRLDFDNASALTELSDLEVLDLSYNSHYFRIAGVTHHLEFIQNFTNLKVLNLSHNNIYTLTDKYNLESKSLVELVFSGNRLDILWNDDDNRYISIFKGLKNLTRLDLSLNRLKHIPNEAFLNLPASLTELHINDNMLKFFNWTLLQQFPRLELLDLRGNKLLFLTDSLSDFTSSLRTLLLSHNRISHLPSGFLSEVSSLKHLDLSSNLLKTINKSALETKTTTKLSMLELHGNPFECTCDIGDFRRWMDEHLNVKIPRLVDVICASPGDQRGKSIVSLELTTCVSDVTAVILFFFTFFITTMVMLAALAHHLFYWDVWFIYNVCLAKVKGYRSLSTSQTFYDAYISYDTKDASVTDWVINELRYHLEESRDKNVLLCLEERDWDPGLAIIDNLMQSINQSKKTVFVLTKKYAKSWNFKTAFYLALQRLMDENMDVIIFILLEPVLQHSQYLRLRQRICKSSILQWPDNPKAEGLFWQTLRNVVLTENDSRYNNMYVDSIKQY
In short: as §1

Row | SMILES | IC50 [1] [nM] | IC50 [2] [nM]
1 | COc1cc(-c2cc3[nH]c(=O)n(C4CCC(N5CCC(F)(F)CC5)CC4)c3cc2C(C)C)cn2ncnc12 (single isomer, unassigned) [Example 246, 1-(4-(4,4-difluoropiperidin-1-yl)cyclohexyl)-6-isopropyl-5-(8-methoxy-[1,2,4]triazolo[1,5-a]pyridin-6-yl)-1,3-dihydro-2H-benzo[d]imidazol-2-one] | 15500 | 0.16
2 | Cc1c(-c2cc3[nH]c(=O)n(C4CCC(N5CC(F)C5)CC4)c3cc2C(C)C)cn2ncnc2c1C (stereo not drawn) [Example 280, 5-(7,8-dimethyl-[1,2,4]triazolo[1,5-a]pyridin-6-yl)-1-(4-(3-fluoroazetidin-1-yl)cyclohexyl)-6-isopropyl-1,3-dihydro-2H-benzo[d]imidazol-2-one] | 20600 | 2.75
3 | COc1c(C)c(-c2cc3[nH]c(=O)n(C4CCC(N5CCC6(CC5)COC6)CC4)c3cc2C(C)C)cn2ncnc12 (single isomer, unassigned) [Example 267, 1-(4-(2-oxa-7-azaspiro[3.5]nonan-7-yl)cyclohexyl)-6-isopropyl-5-(8-methoxy-7-methyl-[1,2,4]triazolo[1,5-a]pyridin-6-yl)-1,3-dihydro-2H-benzo[d]imidazol-2-one] | > 50000 | 0.12
4 | COc1cc(-c2cc3[nH]c(=O)n(C4CCC(N5C6CCC5COC6)CC4)c3cc2C(C)C)cn2ncnc12 (single isomer, unassigned) [Example 252, 1-(4-(3-oxa-8-azabicyclo[3.2.1]octan-8-yl)cyclohexyl)-6-isopropyl-5-(8-methoxy-[1,2,4]triazolo[1,5-a]pyridin-6-yl)-1,3-dihydro-2H-benzo[d]imidazol-2-one] | > 50000 | 24.8
5 | CCN(CC)[C@H]1CC[C@@H](n2c(=O)[nH]c3cc(-c4cc(C)c5ncnn5c4)c(C)cc32)CC1 [Example 20, 1-((1s,4s)-4-(diethylamino)cyclohexyl)-6-methyl-5-(8-methyl-[1,2,4]triazolo[1,5-a]pyridin-6-yl)-1,3-dihydro-2H-benzo[d]imidazol-2-one] | 3350 | 14.4
6 | Cc1cc(-c2ccc3c(c2)[nH]c(=O)n3C2CCNCC2)cn2ncnc12 [1 EB, 5-(8-methyl-[1,2,4]triazolo[1,5-a]pyridin-6-yl)-1-(piperidin-4-yl)-1,3-dihydro-2H-benzo[d]imidazol-2-one] | 347 | 1030
7 | COc1cc(-c2cc3[nH]c(=O)n(C4CCC(N5CCSCC5)CC4)c3cc2C(C)C)cn2ncnc12 (stereo not drawn) [Example 250, 6-isopropyl-5-(8-methoxy-[1,2,4]triazolo[1,5-a]pyridin-6-yl)-1-(4-thiomorpholinocyclohexyl)-1,3-dihydro-2H-benzo[d]imidazol-2-one] | 7250 | 0.36
8 | Cc1cc2c(cc1-c1cc(C)c3ncnn3c1)[nH]c(=O)n2[C@H]1CC[C@H](N(C)C)CC1 [Example 23, 1-((1r,4r)-4-(dimethylamino)cyclohexyl)-6-methyl-5-(8-methyl-[1,2,4]triazolo[1,5-a]pyridin-6-yl)-1,3-dihydro-2H-benzo[d]imidazol-2-one] | 5660 | 30.9
9 | COc1c(C)c(-c2cc3[nH]c(=O)n(C4CCC(N5CCC6(CC5)COC6)CC4)c3cc2C(C)C)cn2ncnc12 (single isomer, unassigned) [Example 268, 1-(4-(2-oxa-7-azaspiro[3.5]nonan-7-yl)cyclohexyl)-6-isopropyl-5-(8-methoxy-7-methyl-[1,2,4]triazolo[1,5-a]pyridin-6-yl)-1,3-dihydro-2H-benzo[d]imidazol-2-one] | 17400 | 1.08
10 | COc1c(C)c(-c2cc3[nH]c(=O)n(C4CCC(N5CC(OC)C5)CC4)c3cc2C(C)C)cn2ncnc12 (stereo not drawn) [Example 266, 6-isopropyl-5-(8-methoxy-7-methyl-[1,2,4]triazolo[1,5-a]pyridin-6-yl)-1-(4-(3-methoxyazetidin-1-yl)cyclohexyl)-1,3-dihydro-2H-benzo[d]imidazol-2-one] | 23000 | 4.47
11 | CCC(C)N1CCC[C@@H](n2c(=O)[nH]c3cc(-c4cc(C)c5ncnn5c4)c(C)cc32)C1 (stereo partly drawn) [Example 28, 1-((3R)-1-(sec-butyl)piperidin-3-yl)-6-methyl-5-(8-methyl-[1,2,4]triazolo[1,5-a]pyridin-6-yl)-1,3-dihydro-2H-benzo[d]imidazol-2-one] | 10800 | 22.5
12 | COc1cc(-c2cc3[nH]c(=O)n(C4CCC(N(C)CCC(F)(F)F)CC4)c3cc2C(C)C)cn2ncnc12 (single isomer, unassigned) [Example 249, 6-isopropyl-5-(8-methoxy-[1,2,4]triazolo[1,5-a]pyridin-6-yl)-1-(4-(methyl(3,3,3-trifluoropropyl)amino)cyclohexyl)-1,3-dihydro-2H-benzo[d]imidazol-2-one] | 2000 | 0.08
13 | CCc1cc2c(cc1-c1cc(OC)c3ncnn3c1)[nH]c(=O)n2[C@@H]1CCCNC1 [119 FB, (R)-6-ethyl-5-(8-methoxy-[1,2,4]triazolo[1,5-a]pyridin-6-yl)-1-(piperidin-3-yl)-1,3-dihydro-2H-benzo[d]imidazol-2-one] | 2500 | 6.99
14 | COc1c(C)c(-c2cc3[nH]c(=O)n(C4CCC(NCC5(S(C)(=O)=O)CC5)CC4)c3cc2C(C)C)cn2ncnc12 (single isomer, unassigned) [Example 259] | 40500 | 1.85
15 | COc1cc(-c2cc3[nH]c(=O)n(C4CCC(N5CC6(C5)CS(=O)(=O)C6)CC4)c3cc2C(C)C)cn2ncnc12 (single isomer, unassigned) [Example 245, 1-(4-(2,2-dioxido-2-thia-6-azaspiro[3.3]heptan-6-yl)cyclohexyl)-6-isopropyl-5-(8-methoxy-[1,2,4]triazolo[1,5-a]pyridin-6-yl)-1,3-dihydro-2H-benzo[d]imidazol-2-one] | 17300 | 11.7
16 | COc1cc(-c2cc3[nH]c(=O)n(C4CCC(N5C[C@@H](F)[C@@H](F)C5)CC4)c3cc2C(C)C)cn2ncnc12 (single isomer, unassigned) [Example 293] | 23400 | 7.74
17 | COc1c(C)c(-c2cc3[nH]c(=O)n(C4CCC(N5CC6(COC6)C5)CC4)c3cc2C(C)C)cn2ncnc12 (single isomer, unassigned) [Example 270, 1-(4-(2-oxa-6-azaspiro[3.3]heptan-6-yl)cyclohexyl)-6-isopropyl-5-(8-methoxy-7-methyl-[1,2,4]triazolo[1,5-a]pyridin-6-yl)-1,3-dihydro-2H-benzo[d]imidazol-2-one] | 11600 | 2.83
18 | COCCNC1CCC(n2c(=O)[nH]c3cc(-c4cn5ncnc5c(OC)c4C)c(C(C)C)cc32)CC1 (stereo not drawn) [Example 257] | 23300 | 1.38
